Measured values: ChEMBL document CHEMBL4373747 (ACS Med Chem Lett, 2020)

Legend:
[1] = target: Histone deacetylase 3 (Homo sapiens, UniProt O15379); experiment: Inhibition of recombinant full length human HDAC3 expressed in baculovirus infected Sf9 cells using FAM-RHKK-Ac as substrate incubated for 3 hrs by electrophoretic mobility shift assay
[2] = target: T1, Protein deacetylase HDAC6 (Homo sapiens, UniProt Q9UBN7); experiment: Inhibition of recombinant full length human HDAC6 expressed in baculovirus infected Sf9 cells using FAM-RHKK-Ac as substrate incubated for 5 hrs by electrophoretic mobility shift assay
T1 sequence (Q9UBN7 whole entry): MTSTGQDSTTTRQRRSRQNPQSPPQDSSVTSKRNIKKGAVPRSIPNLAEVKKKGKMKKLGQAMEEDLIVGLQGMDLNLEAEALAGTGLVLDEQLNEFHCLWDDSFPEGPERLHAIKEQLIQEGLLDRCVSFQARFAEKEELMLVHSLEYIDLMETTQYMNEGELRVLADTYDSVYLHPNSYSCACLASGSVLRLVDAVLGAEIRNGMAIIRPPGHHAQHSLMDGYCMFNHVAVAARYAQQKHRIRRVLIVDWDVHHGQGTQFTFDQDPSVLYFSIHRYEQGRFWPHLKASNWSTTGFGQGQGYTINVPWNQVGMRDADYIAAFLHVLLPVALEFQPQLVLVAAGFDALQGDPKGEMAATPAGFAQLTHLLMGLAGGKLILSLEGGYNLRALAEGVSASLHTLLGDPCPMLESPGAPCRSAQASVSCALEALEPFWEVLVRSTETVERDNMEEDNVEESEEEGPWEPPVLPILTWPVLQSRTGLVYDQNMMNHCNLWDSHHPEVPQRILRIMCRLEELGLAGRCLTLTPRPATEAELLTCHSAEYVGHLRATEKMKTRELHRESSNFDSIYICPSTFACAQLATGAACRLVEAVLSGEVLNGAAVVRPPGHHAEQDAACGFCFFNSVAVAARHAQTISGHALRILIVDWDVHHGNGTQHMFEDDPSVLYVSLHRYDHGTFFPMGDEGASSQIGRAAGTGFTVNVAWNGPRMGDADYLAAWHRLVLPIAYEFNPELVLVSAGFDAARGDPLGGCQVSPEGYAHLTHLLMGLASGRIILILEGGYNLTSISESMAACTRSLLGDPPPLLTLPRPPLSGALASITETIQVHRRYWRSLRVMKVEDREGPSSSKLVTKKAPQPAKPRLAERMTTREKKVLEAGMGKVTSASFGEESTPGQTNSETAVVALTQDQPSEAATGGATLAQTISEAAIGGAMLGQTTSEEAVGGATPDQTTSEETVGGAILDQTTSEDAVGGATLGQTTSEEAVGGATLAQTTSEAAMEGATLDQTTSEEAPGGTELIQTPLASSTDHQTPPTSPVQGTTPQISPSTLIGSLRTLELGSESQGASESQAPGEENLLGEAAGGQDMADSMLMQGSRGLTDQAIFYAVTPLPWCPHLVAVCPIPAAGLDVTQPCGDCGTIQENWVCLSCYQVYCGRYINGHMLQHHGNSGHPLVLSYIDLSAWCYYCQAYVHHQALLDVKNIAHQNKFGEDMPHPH

[3] = target: T2, Histone deacetylase 8 (Homo sapiens, UniProt Q9BY41); experiment: Inhibition of recombinant full length human HDAC8 expressed in baculovirus infected Sf9 cells using FAM-RHKK-TFAc as substrate incubated for 3 hrs by electrophoretic mobility shift assay
T2 sequence (Q9BY41 whole entry): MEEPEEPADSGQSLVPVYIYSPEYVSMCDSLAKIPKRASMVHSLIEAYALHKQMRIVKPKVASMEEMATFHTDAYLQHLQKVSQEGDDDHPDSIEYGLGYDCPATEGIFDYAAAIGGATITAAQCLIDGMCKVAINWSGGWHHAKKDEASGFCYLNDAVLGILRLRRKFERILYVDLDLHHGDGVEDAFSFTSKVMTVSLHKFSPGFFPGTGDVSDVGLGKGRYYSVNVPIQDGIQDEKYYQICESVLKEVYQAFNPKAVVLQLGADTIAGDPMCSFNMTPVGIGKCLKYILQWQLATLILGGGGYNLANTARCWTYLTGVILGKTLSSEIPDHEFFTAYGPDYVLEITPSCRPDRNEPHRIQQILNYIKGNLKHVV

[4] = target: T3, Histone deacetylase 11 (Homo sapiens, UniProt Q96DB2); experiment: Inhibition of recombinant full length human HDAC11 expressed in baculovirus infected Sf9 cells using FAM-RHKK-TFAc as substrate incubated for 17 hrs by electrophoretic mobility shift assay
T3 sequence (Q96DB2 whole entry): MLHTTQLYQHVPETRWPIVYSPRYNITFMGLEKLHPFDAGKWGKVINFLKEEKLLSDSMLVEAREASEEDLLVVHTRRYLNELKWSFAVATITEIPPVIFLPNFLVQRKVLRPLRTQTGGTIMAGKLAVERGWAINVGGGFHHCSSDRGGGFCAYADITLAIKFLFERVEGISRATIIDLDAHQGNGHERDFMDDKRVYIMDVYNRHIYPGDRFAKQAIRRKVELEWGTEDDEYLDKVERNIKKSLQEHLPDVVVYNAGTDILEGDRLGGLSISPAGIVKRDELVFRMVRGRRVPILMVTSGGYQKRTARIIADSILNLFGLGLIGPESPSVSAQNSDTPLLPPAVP

[5] = target: T1, Protein deacetylase HDAC6; experiment: Inhibition of recombinant full length human HDAC6 expressed in baculovirus infected Sf9 cells assessed as inhibitory constant using FAM-RHKK-Ac as substrate incubated for 5 hrs by electrophoretic mobility shift assay
[6] = test system: MV4-11; experiment: Cytotoxicity against human MV4-11 cells assessed as reduction in cell viability incubated for 72 hrs by cell-titer blue assay; assay type: functional, cell-based; conditions: MV4-11, 72 h
[7] = test system: MOLM-13; experiment: Cytotoxicity against human MOLM13 cells assessed as reduction in cell viability incubated for 72 hrs by cell-titer blue assay; assay type: functional, cell-based; conditions: MOLM-13, 72 h
[8] = test system: MDA-MB-231; experiment: Cytotoxicity against human MDA-MB-231 cells assessed as reduction in cell viability incubated for 72 hrs by cell-titer blue assay; assay type: functional, cell-based; conditions: MDA-MB-231, 72 h
[9] = test system: MDA-MB-468; experiment: Cytotoxicity against human MDA-MB-468 cells assessed as reduction in cell viability incubated for 72 hrs by cell-titer blue assay; assay type: functional, cell-based; conditions: MDA-MB-468, 72 h
[10] = Cytotoxicity against human MRC9 cells assessed as reduction in cell viability incubated for 72 hrs by cell-titer blue assay; assay type: cell-based; conditions: MRC9, 72 h
[11] = Intrinsic clearance in ICR/CD1 mouse hepatocytes at 1 uM measured upto 120 mins by LCMS analysis; assay type: ADME, cell-based, Hepatocyte; conditions: 2 h
[12] = Protein binding in CD-1 mouse plasma at 1 uM incubated for 6 hrs by LCMS analysis; assay type: ADME, cell-free; conditions: mouse, 6 h, 1 µM
[13] = Stability in CD-1 mouse hepatocytes assessed as compound remaining at 1 uM measured up to 6 hrs by LCMS analysis; assay type: ADME, cell-based, Hepatocyte; conditions: CD-1, mouse, read-out: Stability
[14] = Apparent permeability from apical to basolateral side in human Caco2 cells incubated for 2 hrs by LC/MS analysis; assay type: ADME, cell-based, Caco-2; conditions: caco-2, 2 h
[15] = Efflux ratio of apparent permeability in human Caco2 cells incubated for 2 hrs by LC/MS analysis; assay type: ADME, cell-based, Caco-2

Chain of Histone deacetylase 3 (O15379 whole entry): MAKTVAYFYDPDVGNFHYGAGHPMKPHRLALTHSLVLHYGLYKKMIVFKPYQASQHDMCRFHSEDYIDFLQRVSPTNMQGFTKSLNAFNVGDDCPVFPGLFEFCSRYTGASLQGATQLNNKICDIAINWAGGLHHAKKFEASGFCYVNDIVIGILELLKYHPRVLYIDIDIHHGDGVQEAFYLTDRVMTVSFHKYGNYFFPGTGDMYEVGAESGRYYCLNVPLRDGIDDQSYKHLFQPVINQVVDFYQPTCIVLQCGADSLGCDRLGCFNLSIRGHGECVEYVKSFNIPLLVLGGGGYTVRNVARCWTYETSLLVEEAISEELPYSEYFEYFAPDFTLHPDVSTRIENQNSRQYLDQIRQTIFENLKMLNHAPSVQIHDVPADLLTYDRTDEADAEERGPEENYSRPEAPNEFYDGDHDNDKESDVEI

IC50 [1] [nM]	IC50 [2] [nM]	IC50 [3] [nM]	IC50 [4] [nM]	Ki [5] [nM]	CLH [11] [µL/min]	PPB [12] [%]	remaining at 6 h, 1 µM [13] [%]	Papp [14] [×10⁻⁶ cm/s]	Ratio ([15]; caco-2, 2 h)	SMILES	IC50 [6] [nM]	IC50 [7] [nM]	IC50 [8] [nM]	IC50 [9] [nM]	IC50 [10] [nM]	efflux ratio at 2 h ([15]; Caco-2)
		> 1000		3600	36	99.6	20	0.27	3.83	CC(C)(C)c1ccc(CN(C(=O)CN(Cc2c(F)c(F)c(F)c(F)c2F)S(=O)(=O)c2ccc(F)cc2)c2ccc(C(=O)NO)cc2)cc1	1880	2100	2620	4210	19200	
374	28.2	635	837	201						CC(C)(C)OC(=O)N(Cc1ccc(C(C)(C)C)cc1)c1ccc(C(=O)NO)cc1	3120	10300	> 25000	> 25000	9490	
213	27.7	133	> 1000	1090						CC(C)(C)c1ccc(CN(C(=O)CN(Cc2c(F)c(F)c(F)c(F)c2F)S(C)(=O)=O)c2ccc(C(=O)NO)cc2)cc1	1620	2980	> 12500	> 25000	> 25000	

Second part, the compound before the results:

SMILES	IC50 [1] [nM]	IC50 [2] [nM]	IC50 [3] [nM]	IC50 [4] [nM]	Ki [5] [nM]	CLH [11] [µL/min]	PPB [12] [%]	remaining at 6 h, 1 µM [13] [%]	Papp [14] [×10⁻⁶ cm/s]	Ratio ([15]; caco-2, 2 h)	IC50 [6] [nM]	IC50 [7] [nM]	IC50 [8] [nM]	IC50 [9] [nM]	IC50 [10] [nM]	efflux ratio at 2 h ([15]; Caco-2)
CC(=O)N(Cc1ccc(C(C)(C)C)cc1)c1ccc(C(=O)NO)cc1	276	71.3	85.4	> 1000	199						4240	10600	> 25000	> 25000		
COCCc1ccc(OCC(O)CNC(C)C)cc1 (stereo not drawn) [METOPROLOL]																1
CC(C)(C)c1ccc(CN(C(=O)CNS(=O)(=O)c2ccc(F)cc2)c2ccc(C(=O)NO)cc2)cc1	372	52.8	28	665	293						3330	5110		> 12500	10800	
O=C(NO)c1ccc(N(Cc2ccccc2)C(=O)CN(Cc2c(F)c(F)c(F)c(F)c2F)S(=O)(=O)c2ccc(F)cc2)cc1	132	1.49	90.6	51.9	1860						5800	8050				
